Assay results taken from EP2457572A1, “Use of atomic quantum clusters (aqcs) in the prevention of cell proliferative disorders, viral infections and autoimmune diseases” (Universidade De Santiago De Compostela, priority 2010, dated 2012).

System: HL-60 cells
Experiment: Activated caspase 3 by flow cytometry (PE Active Caspase-3 Apoptosis kit)
Assay type: cell-based
Conditions: camptothecin 30µM, non treated control 7.4 %
Experimental: HL-60 cells were incubated with the various treatments. […] (It is well known that caspase 3 is the main effector of apoptosis mediated by caspase activation).

With CC[C@@]1(O)C(=O)OCc2c1cc1n(c2=O)Cc2cc3ccccc3nc2-1 [camptothecin] the “cells positive for activated caspase 3” value was 32.4%.
